These results are taken from patent publication US12187721B2, “Protein tyrosine phosphatase inhibitors” (Array BioPharma Inc., priority 2018, dated 2025).

Where two headings read alike, the source gives them in different places.

The assay has as its target T1, full-length SHP2 (His6-tagged SHP2(2-527)) (Homo sapiens, UniProt Q06124).
T1 construct: His6-tagged SHP2(2-527); His6; made in house; host or cells: E. coli
Nature of the assay: SHP2 Enzymatic Assay (fluorescence intensity kinetic assay, DiFMUP hydrolysis). It counts as biochemical. Summed up: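 1 nM His6-SHP2(2-527), activated by 1 μM bis-phosphopeptide, hydrolysed 50 μM DiFMUP in 25 mM HEPES pH 7.4 with 1 mM DTT, 50 mM KCl and 2% DMSO. DiFMU fluorescence (Ex 355/Em 460 nm) was read kinetically for 15 min at ambient temperature.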

Where [1] appears, read: full-length SHP2 with 1 μM activating peptide, 50 μM DiFMUP, single assay or mean of multiple assays, read-out: Biological Example 1 IC50.

T1 sequence (Q06124 2-527): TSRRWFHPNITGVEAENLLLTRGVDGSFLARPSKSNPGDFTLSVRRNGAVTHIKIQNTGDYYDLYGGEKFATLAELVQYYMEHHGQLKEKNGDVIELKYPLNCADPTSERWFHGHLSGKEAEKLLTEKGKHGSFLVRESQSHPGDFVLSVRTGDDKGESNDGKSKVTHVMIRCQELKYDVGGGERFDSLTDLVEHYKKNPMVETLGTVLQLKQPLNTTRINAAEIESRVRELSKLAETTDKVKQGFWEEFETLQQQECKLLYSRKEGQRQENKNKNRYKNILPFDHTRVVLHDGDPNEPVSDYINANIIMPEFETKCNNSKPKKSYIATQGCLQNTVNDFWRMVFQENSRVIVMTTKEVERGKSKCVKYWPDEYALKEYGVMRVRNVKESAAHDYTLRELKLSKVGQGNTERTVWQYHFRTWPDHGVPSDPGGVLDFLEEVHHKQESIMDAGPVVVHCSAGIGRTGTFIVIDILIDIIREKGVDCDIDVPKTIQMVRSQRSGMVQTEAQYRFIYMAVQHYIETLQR

As a reminder, the IC50 is the concentration needed to halve the response being measured. In turn, `Nc1nccc(Sc2ccc3nc(N4C[C@@H]5CC[C@H]4CN5)cnc3n2)c1Cl` [Example 208, 4-((2-((1S,4S)-2,5-diazabicyclo[2.2.2]octan-2-yl)pyrido[2,3-b]pyrazin-6-yl)thio)-3-chloropyridin-2-amine] came in with an IC50 of 67 nM. Same read-out and setting: next, `Nc1nccc(Sc2ccc3nc(N4CCC5(CCN5)CC4)cnc3n2)c1Cl` [Example 55, 4-((2-(1,7-diazaspiro[3.5]nonan-7-yl)pyrido[2,3-b]pyrazin-6-yl)thio)-3-chloropyridin-2-amine]: 121 nM; `Cc1cccc2c1CC1(CCN(c3cnc4nc(Sc5ccnc(N)c5Cl)ccc4n3)CC1)[C@@H]2N` [Example 126, (S)-1′-(6-((2-amino-3-chloropyridin-4-yl)thio)pyrido[2,3-b]pyrazin-2-yl)-4-methyl-1,3-dihydrospiro[indene-2,4′-piperidin]-1-amine]: 30 nM.

In turn, `NC1(CO)CCN(c2cnc3nc(Sc4ccnc(N5CCCC5)c4Cl)ccc3n2)CC1` [Example 45, (4-amino-1-(6-((3-chloro-2-(pyrrolidin-1-yl)pyridin-4-yl)thio)pyrido[2,3-b]pyrazin-2-yl)piperidin-4-yl)methanol] came in with an IC50 of 92 nM. As for `Cc1nccc(Sc2ccc3nc(N4CCCC(C)(N)CC4)cnc3n2)c1Cl` (centres unmarked) [Example 147, 1-(6-((3-chloro-2-methylpyridin-4-yl)thio)pyrido[2,3-b]pyrazin-2-yl)-4-methylazepan-4-amine], the IC50 came out at 50 nM. Regarding `COc1ccc2c(n1)CC1(CCN(c3cnc4nc(Sc5ccnc(N)c5Cl)ccc4n3)CC1)[C@H]2N` (single isomer, unassigned) [Example 116], 36 nM corresponded to half-maximal inhibition (IC50). `COc1ccc(F)c(-c2ccc3nc(N4CCC(C)(N)CC4)cnc3n2)c1Cl` [Example 26, 1-(6-(2-chloro-6-fluoro-3-methoxyphenyl)pyrido[2,3-b]pyrazin-2-yl)-4-methylpiperidin-4-amine] registered a 50% inhibitory concentration (IC50) of 920 nM. In the case of `C[C@@H]1OCC2(CCN(c3cnc4nc(Sc5cccnc5C(F)(F)F)ccc4n3)CC2)[C@@H]1N` [Example 221, (3S,4S)-3-methyl-8-(6-((2-(trifluoromethyl)pyridin-3-yl)thio)pyrido[2,3-b]pyrazin-2-yl)-2-oxa-8-azaspiro[4.5]decan-4-amine], the half-maximal inhibitory concentration (IC50) was 183 nM. In the case of `CC1(N)CCCN(c2cnc3nc(Sc4ccnc(N)c4Cl)ccc3n2)CC1` (centres unmarked) [Example 73, 1-(6-((2-amino-3-chloropyridin-4-yl)thio)pyrido[2,3-b]pyrazin-2-yl)-4-methylazepan-4-amine], half-maximal inhibition (IC50) required 35 nM. `Cc1nc(Cl)ccc1Sc1ccc2nc(N3CCC(C)(N)CC3)cnc2n1` [Example 96, 1-(6-((6-chloro-2-methylpyridin-3-yl)thio)pyrido[2,3-b]pyrazin-2-yl)-4-methylpiperidin-4-amine] returned an IC50 of 503 nM. The molecule `C[C@@H]1OCC2(CCN(c3cnc4nc(Sc5ccnc(N6CCOCC6)c5Cl)ccc4n3)CC2)[C@@H]1N` [Example 79, (3S,4S)-8-(6-((3-chloro-2-morpholinopyridin-4-yl)thio)pyrido[2,3-b]pyrazin-2-yl)-3-methyl-2-oxa-8-azaspiro[4,5]decan-4-amine] returned an IC50 of 425 nM. With `C[C@@H]1OCC2(CCN(c3cnc4nc(Sc5ccnc6c5CCC6O)ccc4n3)CC2)[C@@H]1N` (stereo partly drawn) [Example 157, 4-((2-((3S,4S)-4-amino-3-methyl-2-oxa-8-azaspiro[4.5]decan-8-yl)pyrido[2,3-b]pyrazin-6-yl)thio)-6,7-dihydro-5H-cyclopenta[b]pyridin-7-ol], the IC50 is 282 nM. `NCC1CN(c2cnc3nc(-c4ccccc4)ccc3n2)CCO1` (centres unmarked) [Example 65, (4-(6-phenylpyrido[2,3-b]pyrazin-2-yl)morpholin-2-yl)methanamine] gave an IC50 of 5760 nM. Same read-out and setting: next, `Nc1nccc(Sc2ccc3nc(N4CCC(N)(CCO)CC4)cnc3n2)c1Cl` [Example 128, 2-(4-amino-1-(6-((2-amino-3-chloropyridin-4-yl)thio)pyrido[2,3-b]pyrazin-2-yl)piperidin-4-yl)ethan-1-ol]: 100 nM; `CCCC1(N)CCN(c2cnc3nc(Sc4ccnc(N)c4Cl)ccc3n2)CC1` [Example 173, 4-((2-(4-amino-4-propylpiperidin-1-yl)pyrido[2,3-b]pyrazin-6-yl)thio)-3-chloropyridin-2-amine]: 237 nM. Still for that read-out and setting: to `C[C@@H]1OCC2(CCN(c3cnc4nc(Sc5ncnc(N)c5Cl)ccc4n3)CC2)[C@@H]1N` [Example 217, (3S,4S)-8-(6-((6-amino-5-chloropyrimidin-4-yl)thio)pyrido[2,3-b]pyrazin-2-yl)-3-methyl-2-oxa-8-azaspiro[4.5]decan-4-amine] belongs 845 nM; to `NCC1CN(c2cnc3nc(Sc4ccnc(N)c4Cl)ccc3n2)C1` [Example 85, 4-((2-(3-(aminomethyl)azetidin-1-yl)pyrido[2,3-b]pyrazin-6-yl)thio)-3-chloropyridin-2-amine], 481 nM; to `C[C@@H]1OCC2(CCN(c3cnc4nc(Sc5ccc(N)nc5C(F)(F)F)ccc4n3)CC2)[C@@H]1N` [Example 176, (3S,4S)-8-(6-((6-amino-2-(trifluoromethyl)pyridin-3-yl)thio)pyrido[2,3-b]pyrazin-2-yl)-3-methyl-2-oxa-8-azaspiro[4.5]decan-4-amine], 109 nM. Take `CC(C)(O)CC1(N)CCN(c2cnc3nc(Sc4ccnc(N)c4Cl)ccc3n2)CC1` [Example 129, 1-(4-amino-1-(6-((2-amino-3-chloropyridin-4-yl)thio)pyrido[2,3-b]pyrazin-2-yl)piperidin-4-yl)-2-methylpropan-2-ol]: the IC50 stood at 34 nM. On the same count and under the same terms, next, `Nc1nccc(Sc2ccc3nc(N4CC[C@@H](N)[C@H](O)C4)cnc3n2)c1Cl` [Example 82, (3R,4R)-4-amino-1-(6-((2-amino-3-chloropyridin-4-yl)thio)pyrido[2,3-b]pyrazin-2-yl)piperidin-3-ol]: 65 nM; `CC(C)(C)OC(=O)N[C@H]1[C@@H]2C[C@H]1CN(c1cnc3nc(Sc4ccnc(N)c4Cl)ccc3n1)C2` [Example 138]: 574 nM; `Nc1nccc(Sc2ccc3nc(N4C5CNCC4C5)cnc3n2)c1Cl` [Example 205]: 114 nM. On the same count and under the same terms, next, `Nc1nccc(Sc2ccc3nc(N4CC[C@@H](N)[C@@H](O)C4)cnc3n2)c1Cl` [Example 84, (3S,4R)-4-amino-1-(6-((2-amino-3-chloropyridin-4-yl)thio)pyrido[2,3-b]pyrazin-2-yl)piperidin-3-ol]: 102 nM. Regarding `CC1(N)CCN(c2cnc3nc(Sc4cccc5ccncc45)ccc3n2)CC1` [Example 48, 1-(6-(isoquinolin-8-ylthio)pyrido[2,3-b]pyrazin-2-yl)-4-methylpiperidin-4-amine], the midpoint of inhibition, the IC50, lay at 460 nM. On to `Nc1nccc(Sc2ccc3nc(N4CCC5(CC4)C[C@@H](O)C[C@H]5N)cnc3n2)c1Cl` [Example 160, (2R,4R)-4-amino-8-(6-((2-amino-3-chloropyridin-4-yl)thio)pyrido[2,3-b]pyrazin-2-yl)-8-azaspiro[4.5]decan-2-ol], for which, under setting [1], the IC50 came to 60 nM. The same measure, in the same setting: to `Nc1nccc(Sc2ccc3nc(N4CCC5(CC4)Cc4cc(F)ccc4[C@H]5N)cnc3n2)c1Cl` [Example 145, (S)-1′-(6-((2-amino-3-chloropyridin-4-yl)thio)pyrido[2,3-b]pyrazin-2-yl)-5-fluoro-1,3-dihydrospiro[indene-2,4′-piperidin]-1-amine] belongs 27 nM. Take `Nc1cc(Sc2ccc3nc(N4CCC5(CC4)Cc4ncccc4[C@H]5N)cnc3n2)c(Cl)cn1` [Example 133, (S)-1′-(6-((2-amino-5-chloropyridin-4-yl)thio)pyrido[2,3-b]pyrazin-2-yl)-5,7-dihydrospiro[cyclopenta[b]pyridine-6,4′-piperidin]-5-amine]: the half-inhibitory concentration (IC50) stood at 92 nM. `CC1(N)CCN(c2cnc3nc(-c4cccc5ccncc45)ccc3n2)CC1` [Example 50, 1-(6-(isoquinolin-8-yl)pyrido[2,3-b]pyrazin-2-yl)-4-methylpiperidin-4-amine] returned an IC50 of 9000 nM. On the same count and under the same terms, next, `Nc1nccc(Sc2ccc3nc(N4CCO[C@@H]5CNC[C@H]54)cnc3n2)c1Cl` [Example 215, 3-chloro-4-((2-((4aR,7aR)-hexahydropyrrolo[3,4-b][1,4]oxazin-4(4aH)-yl)pyrido[2,3-b]pyrazin-6-yl)thio)235yridine-2-amine]: 780 nM. In the case of `C[C@@]1(N)CCCN(c2cnc3nc(Sc4ccnc(N)c4Cl)ccc3n2)CC1` (single isomer, unassigned) [Example 74], the IC50 stood at 42 nM. On the same count and under the same terms, to `N[C@@H]1CCCC12CCN(c1cnc3nc(Sc4cccc(Cl)c4Cl)ccc3n1)CC2` [Example 8, (R)-8-(6-((2,3-dichlorophenyl)thio)pyrido[2,3-b]pyrazin-2-yl)-8-azaspiro[4.5]decan-1-amine] belongs 59 nM; to `CN(C)C1(C)CCN(c2cnc3nc(-c4cccc(Cl)c4Cl)ccc3n2)CC1` [Example 18, 1-(6-(2,3-dichlorophenyl)pyrido[2,3-b]pyrazin-2-yl)-N,N,4-trimethylpiperidin-4-amine], 570 nM; to `Nc1nccc(Sc2ccc3nc(N4CCCC45CC(N)C5)cnc3n2)c1Cl` (centres unmarked) [Example 154, 5-(6-((2-amino-3-chloropyridin-4-yl)thio)pyrido[2,3-b]pyrazin-2-yl)-5-azaspiro[3.4]octan-2-amine], 1210 nM. `Cc1nc2nc(Sc3cccc(Cl)c3Cl)ccc2nc1N1CCC(C)(N)CC1` [Example 120, 1-(6-((2,3-dichlorophenyl)thio)-3-methylpyrido[2,3-b]pyrazin-2-yl)-4-methylpiperidin-4-amine] showed an IC50 of 633 nM. Still for that read-out and setting: next, `NCC1(F)CCN(c2cnc3nc(Sc4cccc(Cl)c4Cl)ccc3n2)CC1` [Example 212, (1-(6-((2,3-dichlorophenyl)thio)pyrido[2,3-b]pyrazin-2-yl)-4-fluoropiperidin-4-yl)methanamine]: 197 nM.
